The values below come from US9732094B2, “Arylquinazolines” (Merck Patent GmbH, priority 2013, dated 2017).

The target of one series is Kv11.1 (hERG) (Homo sapiens (Human), UniProt Q12809). Nature of the series: Kv11.1 (hERG) ion channel activity (patch clamp assay), HEK293 cells transfected with hERG gene.
A further series has as its target DNA-PK (Homo sapiens (Human), UniProt P78527). Nature of the series: DNA-PK assay (biochemical), flashplate 33P-ATP kinase assay. In outline:
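Reactions ran in streptavidin-coated flashplates and were halted by 200 mM EDTA, with a further 30 min at room temperature before saline washing.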

Series [1] addresses DNA-PK phosphorylation at serine 2056 (Homo sapiens (Human), UniProt P78527). Nature of the series: DNA-PK phosphorylation at serine 2056 (cellular), bleomycin-treated HCT116 cells, ELISA. Type of series: cell-based. As to conditions: HCT116 cells, read-out: IC50 pDNA-PK. In outline: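 Chemiluminescent ELISA read-out; phospho-specific signal normalised to total DNA-PKcs. Cells (HCT116) exposed 6 h to test compound plus 10 μM bleomycin to induce double-strand breaks; DMSO control served as blank.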
(An ELISA detects its analyte on a solid surface through an enzyme-linked reagent.)

Where [2] appears, read: Ki [Kv1.11 hERG], patch clamp, HEK293 transfected with hERG gene.
The mark [3] stands for this setting: cellular, 10 μM bleomycin, six hours.
[4] abbreviates: read-out: Ki [Kv1.11 hERG], patch clamp, HEK293 transfected with hERG gene.
[5] abbreviates: read-out: Ki [Kv1.11 hERG], Table 5.

The structures appear in SMILES notation. Like-named read-outs stand apart in the source and are kept apart here.

Chain of Kv11.1 (hERG) (Q12809 whole entry): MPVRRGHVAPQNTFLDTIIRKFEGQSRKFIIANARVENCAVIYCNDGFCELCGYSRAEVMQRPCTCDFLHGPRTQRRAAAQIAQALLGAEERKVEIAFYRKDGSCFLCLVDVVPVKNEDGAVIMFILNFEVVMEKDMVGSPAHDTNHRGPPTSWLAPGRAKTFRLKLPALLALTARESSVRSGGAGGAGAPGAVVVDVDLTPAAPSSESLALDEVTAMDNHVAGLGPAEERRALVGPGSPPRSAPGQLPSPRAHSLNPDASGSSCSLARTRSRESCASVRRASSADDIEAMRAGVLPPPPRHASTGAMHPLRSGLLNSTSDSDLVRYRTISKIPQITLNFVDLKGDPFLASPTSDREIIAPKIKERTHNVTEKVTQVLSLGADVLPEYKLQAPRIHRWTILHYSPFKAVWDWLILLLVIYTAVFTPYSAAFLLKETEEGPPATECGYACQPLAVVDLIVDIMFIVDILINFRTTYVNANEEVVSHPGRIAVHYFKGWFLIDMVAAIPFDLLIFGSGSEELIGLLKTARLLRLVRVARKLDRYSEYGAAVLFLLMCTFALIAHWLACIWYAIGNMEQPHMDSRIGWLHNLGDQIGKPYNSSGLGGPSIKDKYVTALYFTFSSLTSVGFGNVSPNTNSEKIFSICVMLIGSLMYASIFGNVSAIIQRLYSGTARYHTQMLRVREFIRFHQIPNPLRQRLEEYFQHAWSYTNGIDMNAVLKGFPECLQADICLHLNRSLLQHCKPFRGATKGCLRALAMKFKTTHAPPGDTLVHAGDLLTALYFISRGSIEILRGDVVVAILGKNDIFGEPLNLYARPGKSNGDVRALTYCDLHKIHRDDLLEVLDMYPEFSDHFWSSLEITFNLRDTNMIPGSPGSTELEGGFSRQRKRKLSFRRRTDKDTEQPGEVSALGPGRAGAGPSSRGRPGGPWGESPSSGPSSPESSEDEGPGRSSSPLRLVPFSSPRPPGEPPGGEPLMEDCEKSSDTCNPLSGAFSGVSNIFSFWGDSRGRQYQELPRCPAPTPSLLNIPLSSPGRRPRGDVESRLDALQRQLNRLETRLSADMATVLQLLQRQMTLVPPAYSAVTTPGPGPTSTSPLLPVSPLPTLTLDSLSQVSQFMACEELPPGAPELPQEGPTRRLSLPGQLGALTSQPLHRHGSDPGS

One may read the Ki as the equilibrium dissociation constant of an inhibitor or competing ligand from its target. In general, IC50 refers to the midpoint of a concentration-inhibition curve. `Nc1nccnc1C(O)c1cc(-c2ncnc3cc(N4CCOCC4)ccc23)c(F)cc1Cl` (stereo not drawn) [Example 117, (3-Amino-pyrazin-2-yl)-[2-chloro-4-fluoro-5-(7-morpholin-4-yl-quinazolin-4-yl)-phenyl]methanol] displayed a Ki on Kv11.1 (hERG) (setting [2]) of 15 to 25 µM. Also, the IC50 on DNA-PK (enzymatic, 5 μM ATP) lay in the range of 0.003 to 0.007 µM; in series [1] (setting [3]) it was 0.5 to 5 µM.
For `N#Cc1ccc(C(O)c2cc(-c3ncnc4cc(N5CCOCC5)ccc34)c(F)cc2Cl)nn1` (stereo not drawn) [Example 118, 6-{[2-Chloro-4-fluoro-5-{7-morpholin-4-yl-quinazolin-4-yl)-phenyl]hydroxy-methyl}pyridazine-3-carbonitrile], in that order: 15 to 25 µM, 0.003 to 0.007 µM and 0.5 to 5 µM.
For `N#CCOc1ccc(C(O)c2cc(-c3ncnc4cc(N5CCOCC5)ccc34)c(F)cc2Cl)nn1` (stereo not drawn) [Example 119, (6-{(2-Chloro-4-fluoro-5-(7-morpholin-4-yl-quinazolin-4-yl)-phenyl] hydroxy-methyl}pyridazin-3-yl-oxy)acetonitrile], in that order: 15 to 25 µM, less than 0.003 µM and less than 0.5 µM.
As for `COc1ccc(C(O)c2cc(-c3ncnc4cc(N5CCOCC5)ccc34)c(F)cc2F)cc1` (stereo not drawn) [Example 120, [2.4-Difluoro-5-(7-morpholin-4-yl-quinazolin-4-yl)-phenyl]-(4-methoxyphenyl)-methanol], on Kv11.1 (hERG) (setting [4]), the Ki is less than 10 µM. The IC50 on DNA-PK (enzymatic, 5 μM ATP) was in the range of 0.007 to 0.03 µM; in series [1] (setting [3]) it was 0.5 to 5 µM.
`OC(c1ccc(F)c(-c2ncnc3cc(N4CCOCC4)ccc23)c1)c1ccc(OC(F)F)nn1` (stereo not drawn) [Example 121, (6-Difluoro-methoxy-pyridazin-3-yl)-[4-fluoro-3-(7-morpholin-4-yl-quinazolin-4-yl)-phenyl]methanol]: the Ki at Kv11.1 (hERG) (setting [2]) lay within 15 to 25 µM. Moreover, the IC50 fell in the range of 0.003 to 0.007 µM against DNA-PK (enzymatic, 5 μM ATP) and 0.5 to 5 µM in series [1] (setting [3]).
In the same order, the values of `C#CC(O)(c1ccc(OC)nn1)c1cc(-c2ncnc3cc(N4CCOCC4)ccc23)c(F)cc1Cl` (stereo not drawn) [Example 122, 1-[2-Chloro-4-fluoro-5-(7-morpholin-4-yl-quinazolin-4-yl)-phenyl]-1-(6-methoxy-pyridazin-3-yl)-prop-2-yn-1-ol] are 10 to 15 µM, 0.007 to 0.03 µM and 0.5 to 5 µM.
Take `COc1ccc(C(O)(c2cc(-c3ncnc4cc(N5CCOCC5)ccc34)c(F)cc2Cl)C(F)F)nn1` (stereo not drawn) [Example 123, 1-[2-Chloro-4-fluoro-5-(7-morpholin-4-yl-quinazolin-4-yl)-phenyl]-2,2-difluoro-1-(6-methoxy-pyridazin-3-yl)-ethanol]: the Ki at Kv11.1 (hERG) (setting [4]) was more than 25 µM. For the same molecule, the IC50 fell in the range of 0.007 to 0.03 µM against DNA-PK (enzymatic, 5 μM ATP) and 10 to 30 µM in series [1] (setting [3]).
For `COc1ccc(C(O)c2cc(-c3ncnc4cc(N5CCOCC5)ccc34)c(F)cc2F)c(F)c1` (stereo not drawn) [Example 124, [2,4-Difluoro-5-(7-morpholin-4-yl-quinazolin-4-yl)-phenyl]-(2-fluoro-4-methoxy-phenyl)methanol], at Kv11.1 (hERG) (setting [4]), the Ki was less than 10 µM. The IC50 against DNA-PK (enzymatic, 5 μM ATP) is 0.007 to 0.03 µM; in series [1] (setting [3]), 0.5 to 5 µM.
Regarding `COc1ccc(C(C)(O)c2cc(-c3ncnc4cc(N5CCOCC5)ccc34)c(F)cc2Cl)nn1` (stereo not drawn) [Example 125, 1-[2-Chloro-4-fluoro-5-(7-morpholin-4-yl-quinazolin-4-yl)-phenyl]-1-(6-methoxy-pyridazin-3-yl)-ethanol], the Ki at Kv11.1 (hERG) (setting [2]) lay in the range of 15 to 25 µM. The IC50 against DNA-PK (enzymatic, 5 μM ATP) was in the range of 0.003 to 0.007 µM; in series [1] (setting [3]), 10 to 30 µM.
For `COc1ccc(C(O)c2cc(-c3ncnc4cc(N5CCOCC5)sc34)c(F)cc2Cl)nn1` (stereo not drawn) [Example 128, (2-Chloro-4-fluoro-5-(6-morpholin-4-ylthieno[3,2-d}-pyrimidin-4-yl)-phenyl]-(6-methoxy-pyridazin-3-yl)-methanol], in that order: 15 to 25 µM, less than 0.003 µM and 0.5 to 5 µM.
For `COc1ccc(C(O)c2cc(-c3nc(Cl)nc4cc(N5CCOCC5)ccc34)c(F)cc2Cl)nn1` (stereo not drawn) [Example 132, [2-Chloro-5-(2-chloro-7-morpholin-4-yl-quinazolin-4-yl)-4-fluorophenyl]-(6-methoxy-pyridazin-3-yl)-methanol], the Ki on Kv11.1 (hERG) (setting [4]) is more than 25 µM. Moreover, the IC50 at DNA-PK (enzymatic, 5 μM ATP) was in the range of 0.003 to 0.007 µM; in series [1] (setting [3]), 0.5 to 5 µM.
For `CN(C)CCOc1ccc(C(O)c2ccc(F)c(-c3ncnc4cc(N5CCOCC5)ccc34)c2)nn1` (stereo not drawn) [Example 133, [6-(2-Dimethyl-amino-ethoxy)-pyridazin-3-yl]-[4-fluoro-3-(7-morpholin-4-yl-quinazolin-4-yl)-phenyl]methanol], in that order: more than 25 µM, 0.007 to 0.03 µM and 5 to 10 µM.
Consider `CCOc1ccc(C(O)c2ccc(F)c(-c3ncnc4cc(N5CCOCC5)ccc34)c2)nn1` (stereo not drawn) [Example 134, (6-Ethoxy-pyridazin-3-yl)-[4-fluoro-3-(7-morpholin-4-yl-quinazolin-4-yl)-phenyl]methanol], for which the Ki on Kv11.1 (hERG) (setting [2]) fell in the range of 10 to 15 µM. For the same molecule, the IC50 at DNA-PK (enzymatic, 5 μM ATP) fell in the range of 0.007 to 0.03 µM; in series [1] (setting [3]), 0.5 to 5 µM.
Take `OC(c1ccc(F)c(-c2ncnc3cc(C4=CCOCC4)ccc23)c1)c1nccs1` (stereo not drawn) [Example 139, {3-[7-(3,6-Dihydro-2H-pyran-4-yl)-quinazolin-4-yl]-4-fluoro-phenyl}-thiazol-2-ylmethanol]: at Kv11.1 (hERG) (setting [5]), the Ki was more than 25 µM. For the same molecule, the IC50 lay within 0.007 to 0.03 µM against DNA-PK (Table 5) and 10 to 30 µM in series [1] (Table 5).
On Kv11.1 (hERG) (Ki [Kv1.11 hERG], Table 5), `OC(c1ccc(F)c(-c2ncnc3cc(N4CCOCC4)ncc23)c1)c1nccs1` (stereo not drawn) [Example 140, [4-Fluoro-3-(7-morpholin-4-yl-pyrido[4,3-d}-pyrimidin-4-yl)-phenyl]thiazol-2-yl-methanol] registered a Ki of 15 to 25 µM. Also, the IC50 is more than 0.03 µM on DNA-PK (Table 5) and 10 to 30 µM in series [1] (Table 5).
For `OCc1csc(C(O)c2cc(-c3ncnc4cc(N5CCOCC5)ncc34)c(F)cc2Cl)n1` (stereo not drawn) [Example 141, [2-chloro-4-fluoro-5-(7-morpholin-4-ylpyrido[4,3-d]pyrimidin-4-yl)phenyl]-(4-hydroxymethylthiazol-2-yl)methanol], in that order: 15 to 25 µM, more than 0.03 µM and 10 to 30 µM.
`OCc1csc(C(O)c2cc(-c3ncnc4cc(N5CCOCC5)ccc34)c(F)cc2Cl)n1` (stereo not drawn) [Example 142, [2-Chloro-4-fluoro-5-(7-morpholin-4-yl-quinazolin-4-yl)-phenyl]-(4-hydroxymethyl-thiazol-2-yl)-methanol]: the Ki on Kv11.1 (hERG) (setting [5]) is less than 10 µM. The IC50 at DNA-PK (Table 5) was less than 0.003 µM; in series [1] (Table 5), 0.5 to 5 µM.
The molecule `CNCc1csc(C(O)c2cc(-c3ncnc4cc(N5CCOCC5)ccc34)c(F)cc2Cl)n1` (stereo not drawn) [Example 143, [2-Chloro-4-fluoro-5-(7-morpholin-4-ylquinazolin-4-yl)phenyl]-(4-methylaminomethylthiazol-2-yl)methanol] registered a Ki at Kv11.1 (hERG) (Ki [Kv1.11 hERG], Table 5) of 10 to 15 µM. For the same molecule, the IC50 lay in the range of 0.007 to 0.03 µM at DNA-PK (Table 5) and 5 to 10 µM in series [1] (Table 5).
In the same order, the values of `OC(c1cccc(-c2ncnc3cc(N4CCOCC4)ccc23)c1)c1nccs1` (stereo not drawn) [Example 148, [3-(7-Morpholin-4-ylquinazolin-4-yl)-phenyl]thiazol-2-yl-methanol] are 10 to 15 µM, 0.007 to 0.03 µM and 10 to 30 µM.
As for `OC(c1cccc(-c2ncnc3cc(N4CCOCC4)ccc23)c1)c1nccs1` (stereo not drawn) [Example 150, [3-(7-Morpholin-4-ylquinazolin-4-yl)-phenyl]thiazol-2-yl-methanol], the Ki at Kv11.1 (hERG) (setting [5]) is more than 25 µM. For the same molecule, the IC50 against DNA-PK (Table 5) is 0.007 to 0.03 µM; in series [1] (Table 5), 5 to 10 µM.
For `CC(O)(c1cncc(-c2ncnc3cc(N4CCOCC4)ccc23)c1)c1nccs1` (stereo not drawn) [Example 152, 1-[5-(7-Morpholin-4-ylquinazolin-4-yl)-pyridin-3-yl]-1-thiazol-2-ylethanol], in that order: more than 25 µM, 0.007 to 0.03 µM and 10 to 30 µM.
Turning to `OC(c1cccc(-c2ncnc3cc(N4CCOCC4)ccc23)c1)(c1nccs1)C(F)(F)F` (stereo not drawn) [Example 159, 2,2,2-Trifluoro-1-[3-(7-morpholin-4-yl-quinazolin-4-yl)-phenyl]-1-thiazol-2-ylethanol], the inhibitory constant (Ki) on Kv11.1 (hERG) (setting [5]) was less than 10 µM. The IC50 fell in the range of 0.007 to 0.03 µM on DNA-PK (Table 5) and 10 to 30 µM in series [1] (Table 5).
In turn, `CC(O)(c1ccc(F)c(-c2ncnc3cc(N4CCOCC4)ccc23)c1)c1nccs1` (stereo not drawn) [Example 163, 1-[4-Fluoro-3-(7-morpholin-4-yl-quinazolin-4-yl)-phenyl]-1-thiazol-2-ylethanol] registered a Ki on Kv11.1 (hERG) (Ki [Kv1.11 hERG], Table 5) of 10 to 15 µM. The IC50 against DNA-PK (Table 5) was in the range of 0.007 to 0.03 µM; in series [1] (Table 5) it was 10 to 30 µM.
For `OC(c1cc(F)c(F)c(-c2ncnc3cc(N4CCOCC4)ccc23)c1)c1nccs1` (stereo not drawn) [Example 171, [3,4-Difluoro-5-(7-morpholin-4-yl-quinazolin-4-yl)-phenyl]thiazol-2-yl-methanol], the Ki on Kv11.1 (hERG) (setting [5]) was less than 10 µM. Further, the IC50 at DNA-PK (Table 5) was less than 0.003 µM; in series [1] (Table 5), 0.5 to 5 µM.
As to `OC(c1cccc(-c2ncnc3cc(N4CCOCC4)ccc23)c1)(c1nccs1)C(F)(F)F` (stereo not drawn) [Example 173, 2,2,2-Trifluoro-1-[3-(7-morpholin-4-yl-quinazolin-4-yl)-phenyl)-1-thiazol-2-ylethanol], the Ki on Kv11.1 (hERG) (setting [5]) was less than 10 µM. The IC50 on DNA-PK (Table 5) was less than 0.003 µM; in series [1] (Table 5), 5 to 10 µM.
For `COC(c1ccc(F)c(-c2ncnc3cc(N4CCOCC4)ccc23)c1)c1nccs1` (stereo not drawn) [Example 177, 4-[2-Fluoro-5-(-methoxythiazol-2-ylmethyl)phenyl]-7-morpholin-4-yl-quinazoline], in that order: more than 25 µM, 0.003 to 0.007 µM and 10 to 30 µM.
